The values that follow come from publication PMC10706242, “Inhibitors of 3-Hydroxy-3-methylglutaryl Coenzyme A Reductase Decrease the Growth, Ergosterol Synthesis and Generation of petite Mutants in Candida glabrata and Candida albicans” (International Journal of Molecular Sciences, 2023).

Usually inhibition stands for the drop in the measured response relative to a control, in per cent.

Molecules are shown by their SMILES.

Test [1] concerns the target T1, rec-CgHMGR (CgHMGR) (Nakaseomyces glabratus, UniProt Q6FKH6).
T1 construct: gene HMG1; transmembrane region removed), pPICZB, His-tagged, expressed in Pichia pastoris X-33, Ni-NTA purified, approx. 48 kDa by SDS-PAGE
T1 sequence (Q6FKH6 619-1056 limits assumed): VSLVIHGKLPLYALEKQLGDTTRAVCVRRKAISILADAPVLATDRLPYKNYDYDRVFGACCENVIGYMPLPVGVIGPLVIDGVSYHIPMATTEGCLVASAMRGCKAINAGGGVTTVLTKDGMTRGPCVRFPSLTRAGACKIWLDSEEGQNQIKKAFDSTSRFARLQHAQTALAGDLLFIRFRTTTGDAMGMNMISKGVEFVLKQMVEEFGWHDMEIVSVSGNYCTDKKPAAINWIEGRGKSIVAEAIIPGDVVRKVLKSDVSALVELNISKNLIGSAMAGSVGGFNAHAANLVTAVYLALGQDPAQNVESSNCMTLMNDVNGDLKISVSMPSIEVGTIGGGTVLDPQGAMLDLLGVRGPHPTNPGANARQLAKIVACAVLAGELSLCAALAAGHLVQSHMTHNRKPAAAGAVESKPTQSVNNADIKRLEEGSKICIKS
Put plainly: NADPH oxidation at […] nm. The following applies: read-out: Inhibition (% of Relative Activity) *. It is filed as biochemical.

Test [2] deals with T1, rec-CgHMGR (CgHMGR). Nature of the test: NADPH oxidation at […] nm. It is filed as biochemical. The following applies: HMG-CoA, 50 mM Tris-HCl pH 8.0, 37 °C.

On to `CCCc1cc(OC)c(OC)cc1O` [7a], for which, on rec-CgHMGR (CgHMGR) [1], the inhibition at 100 µM was 66 ± 2.08%.
Still for that read-out and setting: in the case of `CCCc1cc(OC)c(OCC(=O)OC)cc1O` [1b] it was 89 ± 1.24%; in that of `CCc1ccc(OCC(=O)OC)c([N+](=O)[O-])c1` [6g], 86 ± 3.21%.
Regarding `NC(=O)C1=CN([C@@H]2O[C@H](COP(=O)(O)OP(=O)(O)OC[C@H]3O[C@@H](n4cnc5c(N)ncnc54)[C@H](OP(=O)(O)O)[C@@H]3O)[C@@H](O)[C@H]2O)C=CC1` [NADPH], the “NADPH oxidation at 340 nm” value at rec-CgHMGR (CgHMGR) [2] is on record as “converted into its oxidized form by the catalytic subunit of HMGR in the presence of HMG-CoA”.
Consider `CCCc1cc(OC)c(OCC(=O)OC)cc1[N+](=O)[O-]` [1a], for which the inhibition at 100 µM on rec-CgHMGR (CgHMGR) [1] came to 73 ± 1.52%.
